Entries after “also recorded” stand apart in the source; their conditions may differ.
How the values were obtained:
Format in all cases: cell-based
SLC38A4 (ATA3) = molecular target: T1, SLC38A4 (ATA3) (Homo sapiens, UniProt Q969I6); assay: TEVC electrogenic coupled currents in oocytes; conditions: 100 µM L-alanine, 3 µM BPOHP
T1 construct: expressed in transfected cells; host or cells: Xenopus laevis oocytes (cRNA injection)
T1 sequence (Q969I6 1-547): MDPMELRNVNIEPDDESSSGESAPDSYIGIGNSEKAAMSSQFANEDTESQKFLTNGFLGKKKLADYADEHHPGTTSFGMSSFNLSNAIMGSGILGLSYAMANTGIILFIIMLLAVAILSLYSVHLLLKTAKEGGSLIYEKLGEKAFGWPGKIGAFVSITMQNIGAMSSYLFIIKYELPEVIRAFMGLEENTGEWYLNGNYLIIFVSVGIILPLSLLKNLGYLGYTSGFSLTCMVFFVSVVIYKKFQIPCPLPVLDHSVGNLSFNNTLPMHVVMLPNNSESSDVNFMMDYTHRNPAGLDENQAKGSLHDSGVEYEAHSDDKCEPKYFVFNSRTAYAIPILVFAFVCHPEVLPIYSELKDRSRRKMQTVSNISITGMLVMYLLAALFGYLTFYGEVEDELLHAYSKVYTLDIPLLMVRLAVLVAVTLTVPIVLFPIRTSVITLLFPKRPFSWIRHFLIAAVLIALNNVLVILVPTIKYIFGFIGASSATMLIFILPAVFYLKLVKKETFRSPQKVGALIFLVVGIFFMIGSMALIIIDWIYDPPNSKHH
Protocol: BPOHP activity was evaluated against the glutamate transporters paralogs within the SLC1A gene family (SLC1A 1–3) as well as at neutral amino acid transporters that share common ligand substrates with the SLC1 family including SLC38A1,2, and 4 (ATA1, ATA2, ATA3) and heteromeric transporters SLC7A10+SLC3A2 (asc-1/4f2). […] Finally, radiolabeled [^3H]D-serine uptake was used to assess the electroneutral SLC7A10+SLC3A2 transporter, in which 10 µM BPOHP had no effect (Figure S3).
(§1) Uptake was halted by washing 3 times with 4 °C ND96 buffer. Oocytes were then lysed in 0.1% Triton X-100, and radioactivity was counted via liquid scintillation. Dose response curves were generated by fitting fractional inhibition (I) to the expression I = Imax × [inhibitor]/([inhibitor] + IC50).
Two-electrode voltage clamp (TEVC) transporter currents were recorded with a GeneClamp 500 amplifier and Digidata 1320A analog–digital interface (Molecular Devices, San Jose, CA, USA). […] Data were acquired with Axograph (v1.7.6) and LabChart (v7) and analyzed with Kaleidagraph software (v4.1) (Synergy, Reading, PA, USA). Uncoupled anion currents associated with the transport of substrate and block of SLC1A4 or SLC1A5 mediated leak conductance were recorded in the presence of Ringer with 50% substitution of NaCl by NaSCN to amplify the non-transported anion conductance. […]

SLC1A4 [1] = molecular target: T2, SLC1A4 (Homo sapiens, UniProt P43007); assay: [3H]L-alanine uptake block in oocytes
T2 construct: expressed in transfected cells; host or cells: Xenopus laevis oocytes (cRNA injection)
T2 sequence (P43007 1-532): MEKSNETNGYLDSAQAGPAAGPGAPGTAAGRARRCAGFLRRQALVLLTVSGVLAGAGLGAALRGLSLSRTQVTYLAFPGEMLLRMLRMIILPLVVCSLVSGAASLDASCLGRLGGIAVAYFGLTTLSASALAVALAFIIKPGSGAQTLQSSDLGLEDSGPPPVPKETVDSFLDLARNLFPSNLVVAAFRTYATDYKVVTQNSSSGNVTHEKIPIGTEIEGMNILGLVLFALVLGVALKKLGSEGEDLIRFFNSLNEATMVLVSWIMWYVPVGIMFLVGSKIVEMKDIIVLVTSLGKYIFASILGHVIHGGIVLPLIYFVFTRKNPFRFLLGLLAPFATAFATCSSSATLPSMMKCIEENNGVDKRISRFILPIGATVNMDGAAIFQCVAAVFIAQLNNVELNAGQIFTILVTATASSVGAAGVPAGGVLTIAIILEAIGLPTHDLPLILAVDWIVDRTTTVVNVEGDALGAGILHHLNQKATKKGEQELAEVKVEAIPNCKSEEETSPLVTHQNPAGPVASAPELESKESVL
Protocol: as §1

SLC1A4 [2] = molecular target: T2, SLC1A4; assay: [3H]L-alanine heteroexchange (trans-stimulation) in preloaded oocytes; conditions: 3 µM BPOHP, 1 mM L-alanine
Protocol: as §1

SLC1A5 = molecular target: T3, SLC1A5 (Mus musculus, UniProt P51912); assay: as above; conditions: 3 µM BPOHP, 1 mM L-alanine
T3 construct: expressed in transfected cells; host or cells: Xenopus laevis oocytes (cRNA injection)
T3 sequence (P51912 1-553): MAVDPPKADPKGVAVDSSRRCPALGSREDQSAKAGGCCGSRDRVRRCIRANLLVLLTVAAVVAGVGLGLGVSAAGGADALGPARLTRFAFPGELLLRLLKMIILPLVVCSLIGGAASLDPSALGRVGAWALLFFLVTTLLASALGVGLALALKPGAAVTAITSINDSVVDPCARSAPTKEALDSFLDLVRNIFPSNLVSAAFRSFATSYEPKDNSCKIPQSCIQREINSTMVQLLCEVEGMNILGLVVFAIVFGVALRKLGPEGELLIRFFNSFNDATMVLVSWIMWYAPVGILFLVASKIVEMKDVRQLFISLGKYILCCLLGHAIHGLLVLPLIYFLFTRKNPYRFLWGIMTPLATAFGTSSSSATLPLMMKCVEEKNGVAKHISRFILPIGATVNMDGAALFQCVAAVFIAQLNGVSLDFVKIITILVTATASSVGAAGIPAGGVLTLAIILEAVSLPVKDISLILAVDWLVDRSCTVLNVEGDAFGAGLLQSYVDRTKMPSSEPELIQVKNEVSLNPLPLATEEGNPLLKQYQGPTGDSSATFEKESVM
Protocol: as §1

IC50 (SLC1A4 [1]): 128 nM | [3H]L-alanine exchange (SLC1A4 [2]): No exchange was detected | [3H]L-alanine exchange (SLC1A5): No exchange was detected
SMILES: O=C(O)[C@H]1NC[C@@H](OCc2ccc(-c3ccccc3)cc2)[C@@H]1O [14e]
block of L-alanine current (SLC38A4 (ATA3)): no effect; also recorded: no discernible block; also recorded: no inhibition was detected
